Data from US11530210B2, “Substituted heteroaromatic pyrazolo-pyridines and their use as GLUN2B receptor modulators” (JANSSEN PHARMACEUTICA NV, priority 2019, dated 2022).

biological target: T1, human GluN1/GluN2B NMDA receptors (Homo sapiens, UniProt Q13224); assay: Calcium flux (FLIPR) assay on cloned human NR1/GluN2B ion channels expressed in mammalian cells (standard and HTS variants); type: cell-based; conditions: cells expressing human GluN1/GluN2B, glutamate and glycine co-agonists
T1 construct: expressed in transfected cells
How it was run: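 Tet-On-induced stable cell line loaded with Calcium 5 dye; compounds applied 5 min (agonist check), then glutamate at ~EC40 plus 10 μM glycine for 5 min. Buffer pH 7.4 with 0.5 mM MgCl2 in dye loading (standard) or 1.5 mM (HTS). FLIPR fluorescence normalized to control wells; (+)MK-801 as antagonist control.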

T1 sequence (Q13224 27-1484, other chains not shown): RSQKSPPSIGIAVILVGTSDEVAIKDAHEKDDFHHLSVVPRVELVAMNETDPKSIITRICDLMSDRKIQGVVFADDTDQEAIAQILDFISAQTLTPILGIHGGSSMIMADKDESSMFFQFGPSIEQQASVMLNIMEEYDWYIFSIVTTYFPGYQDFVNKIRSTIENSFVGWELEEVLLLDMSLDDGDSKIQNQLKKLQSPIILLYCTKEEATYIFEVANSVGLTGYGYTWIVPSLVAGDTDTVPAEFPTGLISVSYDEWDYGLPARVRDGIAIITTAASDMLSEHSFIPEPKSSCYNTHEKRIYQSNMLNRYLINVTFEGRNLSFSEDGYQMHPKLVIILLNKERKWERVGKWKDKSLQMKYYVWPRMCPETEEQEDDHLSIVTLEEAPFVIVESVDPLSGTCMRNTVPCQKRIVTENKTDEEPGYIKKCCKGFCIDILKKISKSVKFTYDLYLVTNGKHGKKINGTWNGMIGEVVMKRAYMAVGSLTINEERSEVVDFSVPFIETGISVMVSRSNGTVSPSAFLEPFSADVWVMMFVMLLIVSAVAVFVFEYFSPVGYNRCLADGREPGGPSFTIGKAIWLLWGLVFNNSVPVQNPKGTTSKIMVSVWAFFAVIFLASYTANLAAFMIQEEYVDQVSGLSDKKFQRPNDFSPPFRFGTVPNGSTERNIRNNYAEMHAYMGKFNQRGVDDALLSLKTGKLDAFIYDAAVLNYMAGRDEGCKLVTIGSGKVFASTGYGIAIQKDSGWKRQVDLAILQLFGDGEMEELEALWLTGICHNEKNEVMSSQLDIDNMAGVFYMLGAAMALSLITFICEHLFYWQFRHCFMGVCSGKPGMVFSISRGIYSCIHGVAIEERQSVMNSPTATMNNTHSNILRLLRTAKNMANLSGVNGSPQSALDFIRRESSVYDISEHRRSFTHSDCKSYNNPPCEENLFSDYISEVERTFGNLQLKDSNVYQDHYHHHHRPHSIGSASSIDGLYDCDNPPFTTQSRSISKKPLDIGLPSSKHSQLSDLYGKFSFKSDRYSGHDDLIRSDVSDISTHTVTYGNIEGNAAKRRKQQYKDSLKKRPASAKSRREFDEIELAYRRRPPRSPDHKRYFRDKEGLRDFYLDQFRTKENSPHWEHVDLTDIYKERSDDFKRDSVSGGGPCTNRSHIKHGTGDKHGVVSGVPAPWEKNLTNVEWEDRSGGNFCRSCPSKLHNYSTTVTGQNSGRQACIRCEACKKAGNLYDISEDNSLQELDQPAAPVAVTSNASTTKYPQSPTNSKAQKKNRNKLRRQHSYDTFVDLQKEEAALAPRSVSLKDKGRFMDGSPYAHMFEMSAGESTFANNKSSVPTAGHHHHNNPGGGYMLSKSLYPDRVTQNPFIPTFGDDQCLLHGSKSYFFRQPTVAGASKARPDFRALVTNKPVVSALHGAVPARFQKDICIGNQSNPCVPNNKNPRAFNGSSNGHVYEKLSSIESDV

Compound | IC50
Fc1ccc(-c2cnc3cnn(Cc4ccccn4)c3c2)cc1OC(F)F [Example 222, 6-[3-(Difluoromethoxy)-4-fluoro-phenyl]-1-(2-pyridylmethyl)pyrazolo[4,3-b]pyridine] | 502 nM
N#Cc1cncc(Cn2ncc3ncc(-c4ccc(F)c(OC(F)F)c4)cc32)c1 [Example 226, 5-[[6-[3-(Difluoromethoxy)-4-fluoro-phenyl]pyrazolo[4,3-b]pyridin-1-yl]methyl]pyridine-3-carbonitrile] | 68 nM
COc1ccc(Cn2ncc3ncc(-c4ccc(F)c(OC(F)F)c4)cc32)cn1 [Example 227, 6-[3-(Difluoromethoxy)-4-fluoro-phenyl]-1-[(6-methoxy-3-pyridyl)methyl]pyrazolo[4,3-b]pyridine] | 1620 nM
COc1cccc(Cn2ncc3ncc(-c4ccc(F)c(OC(F)F)c4)cc32)n1 [Example 228, 6-[3-(Difluoromethoxy)-4-fluoro-phenyl]-1-[(6-methoxy-2-pyridyl)methyl]pyrazolo[4,3-b]pyridine] | 383 nM
COc1ncccc1Cn1ncc2ncc(-c3ccc(F)c(OC(F)F)c3)cc21 [Example 229, 6-[3-(Difluoromethoxy)-4-fluoro-phenyl]-1-[(2-methoxy-3-pyridyl)methyl]pyrazolo[4,3-b]pyridine] | 716 nM
Fc1cncc(Cn2ncc3ncc(-c4ccc(F)c(C(F)(F)F)c4)cc32)c1 [Example 233, 1-[(5-Fluoro-3-pyridyl)methyl]-6-[4-fluoro-3-(trifluoromethyl)phenyl]pyrazolo[4,3-b]pyridine] | 75 nM
COc1cncc(Cn2ncc3ncc(-c4ccc(F)c(C(F)(F)F)c4)cc32)c1 [Example 234, 6-[4-Fluoro-3-(trifluoromethyl)phenyl]-1-[(5-methoxy-3-pyridyl)methyl]pyrazolo[4,3-b]pyridine] | 92 nM
Fc1ccc(Cn2ncc3ncc(-c4ccc(F)c(Br)c4)cc32)cn1 [Example 235, 6-(3-Bromo-4-fluorophenyl)-1-((6-fluoropyridin-3-yl)methyl)-1H-pyrazolo[4,3-b]pyridine] | 253 nM

Stronger by IC50, values ahead:

IC50 | Compound
64 nM | CC(F)(F)c1cc(-c2cnc3cnn(Cc4cncc(Cl)c4)c3c2)ccc1F [Example 221, 1-[(5-Chloro-3-pyridyl)methyl]-6-[3-(1,1-difluoroethyl)-4-fluoro-phenyl]pyrazolo[4,3-b]pyridine]
38 nM | Fc1ccc(-c2cnc3cnn(Cc4cccnc4)c3c2)cc1OC(F)F [Example 223, 6-[3-(Difluoromethoxy)-4-fluoro-phenyl]-1-(3-pyridylmethyl)pyrazolo[4,3-b]pyridine]
56 nM | Cc1cncc(Cn2ncc3ncc(-c4ccc(F)c(OC(F)F)c4)cc32)c1 [Example 224, 6-[3-(Difluoromethoxy)-4-fluoro-phenyl]-1-[(5-methyl-3-pyridyl)methyl]pyrazolo[4,3-b]pyridine]
39 nM | Fc1cncc(Cn2ncc3ncc(-c4ccc(F)c(OC(F)F)c4)cc32)c1 [Example 225, 6-[3-(Difluoromethoxy)-4-fluoro-phenyl]-1-[(5-fluoro-3-pyridyl)methyl]pyrazolo[4,3-b]pyridine]
48 nM | COc1cncc(Cn2ncc3ncc(-c4ccc(F)c(OC(F)F)c4)cc32)c1 [Example 230, 6-[3-(Difluoromethoxy)-4-fluoro-phenyl]-1-[(5-methoxy-3-pyridyl)methyl]pyrazolo[4,3-b]pyridine]
39 nM | Fc1ccc(-c2cnc3cnn(Cc4cncc(Cl)c4)c3c2)cc1OC(F)F [Example 231, 1-[(5-Chloro-3-pyridyl)methyl]-6-[3-(difluoromethoxy)-4-fluoro-phenyl]pyrazolo[4,3-b]pyridine]
40 nM | COc1cncc(Cn2ncc3ncc(-c4ccc(Cl)c(C(F)F)c4)cc32)c1 [Example 232, 6-[4-chloro-3-(Difluoromethyl)phenyl]-1-[(5-methoxy-3-pyridyl)methyl]pyrazolo[4,3-b]pyridine]
